Results as given in ChEMBL document CHEMBL6177976, “Important Role of Triphenylamine in Modulating the Antibacterial Performance Relationships of Antimicrobial Peptide Mimics by Alkyl Chain Engineering” (J Med Chem, 2025).
Active and inactive are the calls of the source. No cut-off for these calls is given here.

Tests used:
Cell membrane [1] = assay: Induction of Inner membrane integrity in Staphylococcus aureus at 128 uM measured for 40 mins in presence of phosphatidylglycerol by T12 dye based analysis; format: subcellular
Cell membrane [2] = assay: Induction of Inner membrane integrity in Staphylococcus aureus at 128 uM measured for 40 mins in presence of cardiolipin by T12 dye based analysis
HeLa [3] = assay: Cytotoxicity against human HeLa cells assessed as dead cells at 32 uM measured after 24 hrs by PI staining based analysis; format: functional, cell-based
HeLa [4] = assay: Cytotoxicity against human HeLa cells at 32 uM measured after 60 mins by Calcein AM assay; format: functional, cell-based
Escherichia coli [5] = assay: Antibacterial activity against Escherichia coli assessed as change in surface zeta potential at 16 uM incubated for 20 mins; format: functional, organism-based
Staphylococcus aureus [6] = assay: Antibacterial activity against methicillin resistant Staphylococcus aureus assessed as bacterial viability at 4 uM incubated for 90 mins relative to control; format: functional; details: 1.5 h
Cell membrane [7] = assay: Induction of Inner membrane integrity in Staphylococcus aureus at 128 uM measured for 40 mins T12 dye based analysis; format: subcellular
Escherichia coli [8] = assay: Antibacterial activity against Escherichia coli assessed as effect on bacterial growth incubated for 90 mins; format: functional, organism-based
Escherichia coli [9] = assay: Antibacterial activity against Escherichia coli incubated for 90 mins; format: functional, organism-based
Staphylococcus aureus [10] = assay: Antibacterial activity against Staphylococcus aureus incubated for 90 mins; format: functional, organism-based; details: dose 10.0 µM
[11] = Hemolytic activity in sheep red blood cells assessed as hemolysis; format: toxicity, cell-based, Ovis aries, Erythrocyte
Cell membrane [12] = assay: Induction of cell membrane damage in Staphylococcus aureus assessed as decrease in fluorescence intensity at 128 uM measured for 40 mins propidium iodide staining based analysis; format: subcellular
HeLa [13] = assay: Cytotoxicity against human HeLa cells at 32 uM incubated for 24 hrs by Calcein AM assay; format: functional, cell-based
Staphylococcus aureus [14] = assay: Antibacterial activity against methicillin resistant Staphylococcus aureus assessed as bacterial viability up to 12 uM; format: functional, organism-based
Staphylococcus aureus [15] = assay: Antibacterial activity against Staphylococcus aureus assessed as change in surface zeta potential at 16 uM incubated for 20 mins; format: functional, organism-based
Cell membrane [16] = assay: Induction of cytoplasmic membrane permeabilization in Staphylococcus aureus assessed as increase in fluorescence intensity at 16 uM incubated for […] by CLSM analysis
HeLa [17] = assay: Cytotoxicity against human HeLa cells at 32 uM incubated for 24 hrs by CCK-8 assay; format: functional, cell-based
Cell membrane [18] = assay: Induction of Inner membrane integrity in Staphylococcus aureus measured for 40 mins in presence of cardiolipin by T12 dye based analysis; format: subcellular; details: dose 128.0 µM
Cell membrane [19] = assay: Induction of cytoplasmic membrane permeabilization in Staphylococcus aureus assessed as increase in fluorescence intensity at 16 uM incubated for […] by SYTO 9 staining based analysis
Cell membrane [20] = assay: Induction of cell membrane damage in Staphylococcus aureus at 20 uM incubated for 60 mins by SEM analysis; format: subcellular
Cell membrane [21] = assay: Induction of Inner membrane integrity in Staphylococcus aureus measured for 40 mins in presence of phosphatidylglycerol by T12 dye based analysis; format: subcellular; details: dose 128.0 µM
Cell membrane [22] = assay: Induction of cell membrane damage in Staphylococcus aureus assessed as increase in fluorescence intensity at 128 uM measured for 40 mins propidium iodide staining based analysis
Staphylococcus aureus [23] = assay: Antibacterial activity against methicillin resistant Staphylococcus aureus assessed as bacterial viability at 10 uM incubated for 90 mins relative to control; format: functional; details: 1.5 h

SMILES | Activity (Cell membrane [1]) | Activity (Cell membrane [2]) | Activity (Escherichia coli [5]) | Activity (Staphylococcus aureus [6]) [%] | Activity (Cell membrane [7]) | Activity (Escherichia coli [8]) | Activity (Escherichia coli [9]) | Activity (Staphylococcus aureus [10]) | Activity (Cell membrane [12]) | Activity (Staphylococcus aureus [14]) | Activity (HeLa [17]) | further results
CCCCCCCC[N+](C)(C)CCCOc1ccc(/C=C/c2ccc(N(c3ccccc3)c3ccccc3)cc2)cc1.[Br-] | inactive | inactive | Active | 28 | Active | inactive | Active | Active | Active | Active | – | Activity (HeLa [3]): Active; Activity (HeLa [4]): inactive; HC50 [11]: 75 µM; Activity (HeLa [13]): inactive
CCCCCCCCCC[N+](C)(C)CCCOc1ccc(/C=C/c2ccc(N(c3ccccc3)c3ccccc3)cc2)cc1.[Br-] | inactive | inactive | Active | 52 | Active | inactive | Active | Active | Active | Active | – | –
CCCC[N+](C)(C)CCCOc1ccc(/C=C/c2ccc(N(c3ccccc3)c3ccccc3)cc2)cc1.[Br-] | – | – | Active | 2 | Active | inactive | Active | Active | – | Active | Active | Activity (Staphylococcus aureus [15]): Active; Activity (Cell membrane [16]): Active; Activity (Cell membrane [18]): Dose-dependent-effect; Activity (Cell membrane [19]): Active; Activity (Cell membrane [20]): Active; Activity (Cell membrane [21]): Dose-dependent-effect
CCCC[N+](C)(C)CCCOc1ccc(/C=C/c2ccccc2)cc1.[Br-] | inactive | inactive | – | – | Active | – | Active | Active | – | Active | Active | Activity (Cell membrane [22]): Active; Activity (Staphylococcus aureus [23]): 55%
